{"source": "ChEMBL document CHEMBL4477196", "about": "“Rhodocomatulin-Type Anthraquinones from the Australian Marine Invertebrates Clathria hirsuta and Comatula rotalaria” (2016)", "system": "MCF7", "experiment": "Growth inhibition of human MCF7 cells at 10 uM incubated for 72 hrs by SRB assay", "format": "functional", "conditions": "MCF7, 72 h, read-out: GI"}
{"smiles": "CCCC(=O)c1c(O)cc(O)c2c1C(=O)c1cc(OC)cc(OC)c1C2=O", "values": [{"measurement": "inhibition of growth at 10 µM", "value": 9, "unit": "%"}]}
